Results on 3 compounds are retold here after US10717733B2, “Haloallylamine indole and azaindole derivative inhibitors of lysyl oxidases and uses thereof” (PHARMAXIS LTD., priority 2016, dated 2020).

SMILES strings stand for the structures. Counter-ions that a name gives are not always drawn.

The test system of experiment [1] is bleomycin induced lung fibrosis. Description: Bleomycin induced lung fibrosis model. It is filed as in vivo. The settings on record: mouse, intranasal bleomycin, 15 mg/kg. The procedure:
Bleomycin induced lung fibrosis in rodents is a widely accepted experimental model to determine the anti-fibrotic activity of therapeutic agents.
Fibrosis is induced by intranasal administered of bleomycin sulphate at a dose of 0.05 U/mouse in a total volume of 50 uL PBS (see Corbel, M., et al Inhibition of bleomycin-induced pulmonary fibrosis in mice by the matrix metalloproteinase inhibitor batimastat J Pathol. 2001 April; 193(4):538-45.) Compound 12 is given 0.1-100 mg/Kg throughout the period of the experimental procedure or 7 days after bleomycin administration and then throughout the entire study.
Formalin fixed lungs sections stained with haematoxylin and eosin are assessed for fibrosis as per the scale outlined by Ashcroft et al (Simple method of estimating severity of pulmonary fibrosis on a numerical scale J Clin Pathol 1988; 41:467-470).

Experiment [2] deals with myocardial infarction induced fibrosis. Description: Myocardial infarction induced fibrosis (carotic ligation) model. The class given is in vivo, mouse. The settings on record: mice, 0.1-100 mg/Kg once a day oral gavage, FIG. 5. From the text: Carotic ligation is a widely accepted experimental model to induce cardiac fibrosis and to determine the anti-fibrotic activity of therapeutic agents.
In mice, the chest is opened via a left thoracotomy. The left coronary artery is identified visually using a stereo microscope, and a 7-0 suture is placed around the artery 1-2 mm below the left auricle. Permanent occlusion of the left coronary artery resulted from its ligation with the suture. Myocardial ischemia was confirmed by pallor in heart color and ST-segment elevation. (see Parajuli et al. Phosphatase PTEN is critically involved in post-myocardial infarction remodeling through the Akt/interleukin-10 signaling pathway Basic Res Cardiol (2012) 107:248).
Mice were subjected to sham or carotic ligation surgery. At 24 hrs post-surgery, echocardiography was performed on the mice. Mice were treated with compound 25 0.1-100 mg/Kg once a day for 21 (7 days after carotic ligation) or 28 days or saline as vehicle controls by oral gavage. At the end of the experiment, echocardiography was repeated to assess left ventricular function and remodeling. Then mice were euthanized for heart collection. Each heart was photographed and fixed with 10% formalin. Hearts were sectioned for Masson's trichrome stain to measure fibrosis (See FIG. 5).

In experiment [3] the test system is STAM mice, NASH liver fibrosis. Description: Streptozotocin and high fat diet induced liver fibrosis (STAM model). The settings on record: daily oral gavage 10-30 mg/kg, FIG. 6. It is filed as in vivo, mouse. The method, then: High fat/carbohydrate diet induced liver fibrosis is the most common reason for liver dysfunction and ultimately liver failure. NASH is induced in male mice by a single subcutaneous injection of 200 μg streptozotocin solution 2 days after birth and feeding with high fat diet after 4 weeks of age (STAM™ model).
LOXL2 inhibitor compound 112 was administered by daily oral gavage at doses between 10-30 mg/kg 8 weeks after streptozotocin application. Mice were sacrificed after NASH had been established and whole blood samples were taken via cardiac puncture. Liver samples were collected and washed with cold saline. Liver weight was measured. The left lateral, right and caudate lobes of livers were snap frozen in liquid nitrogen and stored at −80° C. For HE staining, sections were cut from paraffin blocks of liver tissue prefixed in Bouin's solution and stained with Lillie-Mayer's Hematoxylin and eosin solution. NAFLD Activity score (NAS) was calculated according to the criteria of Kleiner (Kleiner D E. et al., Design and validation of a histological scoring system for nonalcoholic fatty liver disease. Hepatology, 2005; 41:1313). To visualize collagen deposition, Bouin's fixed liver sections were stained using picro-Sirius red solution and the area of fibrosis was quantified (See FIG. 6).

`CCOC(=O)c1ccc2c(c1)c(-c1cccc(S(=O)(=O)N(C)C)c1)c(C)n2C/C(F)=C/CN` [Compound 12, (Z)-ethyl 1-(4-amino-2-fluorobut-2-en-1-yl)-3-(3-(N,N-dimethylsulfamoyl)phenyl)-2-methyl-1H-indole-5-carboxylate]: the “Ashcroft score in the lungs” value in experiment [1] was “significantly reduced”. As to `Cc1c(-c2cccc(S(=O)(=O)N(C)C)c2)c2ncccc2n1C/C(F)=C/CN` [Compound 25, (Z)-3-(1-(4-amino-2-fluorobut-2-en-1-yl)-2-methyl-1H-pyrrolo[3,2-b]pyridin-3-yl)-N,N-dimethylbenzenesulfonamide Dihydrochloride], in experiment [2], the “fibrosis after carotic ligation (Masson's trichrome stain)” value was “reduce fibrosis”. With `Cc1ccc2c(n1)c(-c1cccc(S(C)(=O)=O)c1)c(C)n2C/C(F)=C/CN` [Compound 112, (Z)-4-(2,5-dimethyl-3-(3-(methylsulfonyl)phenyl)-1H-pyrrolo[3,2-b]pyridin-1-yl)-3-fluorobut-2-en-1-amine Dihydrochloride], the “liver fibrosis (picro-Sirius red area of fibrosis)” value in experiment [3] is recorded as “reduce lilver fibrosis”.
